From US11696924B2, “Combination therapy using PDK1 and PI3K inhibitors” (MEMORIAL SLOAN-KETTERING CANCER CENTER, priority 2015, dated 2023) come the findings set out here.

Assay [1] has as its system cap-dependent translation. Briefly: m7GTP pull down, cap-dependent translation. Format: cell-based. As to conditions: HCC1954 shPDK1, BYL719 1 μM, 4 h. The protocol: 2 million cells were seeded in 10 cm plates and treated accordingly 12 hr after seeding. Lysates were prepared using m7GTP pull down buffer (50 mM Hepes, pH 7.4, 75 mM NaCl, 10 mM MgCl2, 1 mM DTT, 8 mM EGTA, 10 mM β-glycerophosphate, 0.5 mM Na3VO4, 0.5% Triton X-100) supplemented with protease and phosphatase inhibitors. Lysates were centrifuged at 13000 rpm for 10 min and supernatants were rotated for 2 h at 4° C. with 7-methyl-GTP-Sepharose or control Sepharose beads (Jena Bioscience). Beads were washed three times with m^7GTP pull down buffer, resuspended in Laemmli buffer, and associated proteins were detected by Western blot.

In assay [2] the test system is PIK3CA-mutant breast cancer. Briefly: clinical trial NCT01870505, PIK3CA-mutant breast cancer. Format: in vivo, patients. As to conditions: with an aromatase inhibitor. The source says:
We then explored whether SGK1 and pNDRG1 expression correlate with clinical outcome to PI3Kα inhibition by analyzing PIK3CA-mutant breast cancer samples from 18 patients treated with BYL719 in combination with an aromatase inhibitor (NCT01870505). Three of these tumors expressed high levels of SGK1 mRNA while the remaining 15 had medium/low levels of SGK1 mRNA. […] This was in agreement with the longer time to disease progression of this subset of patients when compared to the SGK1-high/pNDRG1-positive cohort (FIG. 4H, I).
The MSKCC Institutional Review Board approved the study. Pre-treatment FFPE blocks from patients treated with the PI3Kα inhibitor BYL719 enrolled in the clinical trial NCT01870505 conducted at MSKCC were used for IHC. Informed consent was obtained from all subjects.
For the study of patients treated with the PI3Kα inhibitor BYL719, pre-treatment biopsy FFPE blocks from patients enrolled in the clinical trial NCT01870505 conducted at MSKCC were used for IHC as described above. For the selection of the patients, PIK3CA and other tumor genomic drivers were analyzed using MSK-IMPACT (Cheng et al., 2015). […] SGK1 mRNA levels were determined using next-generation sequencing (NGS) and the expression results were presented as raw Reads Per Kilobase of transcript per Million mapped reads (RPKM). Mean and standard deviation (SD) was calculated across all the samples with available NGS data and overexpression of SGK1 was called for the samples with mRNA levels greater than mean+1SD. For 6 samples, RNA quality and quantity was not optimal for NGS. In these cases, SGK1 mRNA levels were determined using RT-qPCR as described above. RNA from low expressing (T47D) and high expressing (HCC1954) cell lines were used as positive control and absolute mRNA levels were quantified.

As to `Cc1nc(NC(=O)N2CCC[C@H]2C(N)=O)sc1-c1ccnc(C(C)(C)C(F)(F)F)c1` [BYL719], the “cap-dependent translation in PDK1 knockdown cells” value in assay [1] is “decreased cap-dependent translation”. The “clinical response by RECIST” value in assay [2] (patients with pNDRG1-negative tumors) is “three had partial responses and eight had stable disease”. Also, the clinical response entry is given as “did not respond to therapy” in assay [2] (three patients, tumors with high SGK1, pNDRG1 positive) and “rapidly progressed” in assay [2] (two patients, medium/low SGK1, pNDRG1 positive).
